This note sets out measurements from US9688721B2, “Tubulysin compounds, methods of making and use” (priority 2013, dated 2017).

For one assay, the system named is H226 lung cancer cells. As to the kind of experiment: ATP luminescence assay (CELLTITER-GLO), H226 cells. In kind it is cell-based. How it is done:
(§1) As controls, doxorubicin and the tubulysin analog Compound A, which contains an acetate group instead of a carbamate group at the Tuv subunit, were used. Compound A can be prepared according to the teachings of Cheng et al. 2011.
(§2) Tumor cell lines were obtained from the American Type Culture Collection (ATCC), P.O. Box 1549, Manassas, Va. 20108, USA, and cultured according to ATCC instructions. Cells were seeded at 1.0×10^3 cells/well in 96-well plates for 3 h for the ATP assays. 1:3 serial dilutions of the compounds were added to the wells. Plates were allowed to incubate for 24 to 72 h. […] The EC50 values—the concentration at which an agent inhibits or reduces cell proliferation by 50%—were determined using PRISM™ software, version 4.0 (GraphPad Software, La Jolla, Calif., USA).
Background: In ATP-based viability assays light output follows the ATP content of the culture.

Another assay deals with 786-O renal cancer cells. As to the kind of experiment: ATP luminescence assay (CELLTITER-GLO), 786-O cells. It is filed as cell-based. The procedure:
as §1, §2

In the next assay the test system is N87 gastric cancer cells. The note with it: ATP luminescence assay. The procedure:
as §2

pEC50: −log10 of the molar value. Like-named read-outs stand apart in the source and are kept apart here.

One may read the pEC50 as the EC50 on a negative log10 scale, so that one unit is a factor of ten. Consider `CC[C@H](C)[C@H](NC(=O)[C@H]1CCCCN1C)C(=O)N(COC(=O)CC(C)C)[C@H](C[C@@H](OC(C)=O)c1nc(C(=O)N[C@@H](Cc2ccccc2)C[C@H](C)C(=O)O)cs1)C(C)C` [tubulysin D, reference compound], for which the pEC50 in the assay on H226 lung cancer cells (H226 lung cancer cells, ATP luminescence assay, read-out: EC50) was 10.30; in the assay with 786-O renal cancer cells (786-O renal cancer cells, ATP luminescence assay, read-out: EC50) it was 10.70.
The compound `CC[C@H](C)[C@H](NC(=O)[C@H]1CCCCN1C)C(=O)N(C)[C@H](C[C@@H](OC(=O)N(C)C)c1nc(C(=O)N[C@@H](Cc2ccc(N)cc2)C[C@H](C)C(=O)O)cs1)C(C)C` [Compound 75c] had a pEC50 with N87 gastric cancer cells of 8.27.
Turning to `CC[C@H](C)[C@H](NC(=O)[C@H]1CCCCN1C)C(=O)N(CCc1ccc(N)cc1)[C@H](C[C@@H](OC(=O)NC)c1nc(C(=O)N[C@@H](Cc2ccccc2)CC(C)C(=O)O)cs1)C(C)C` (some centres unmarked) [(I-7)], the pEC50 in the assay with H226 lung cancer cells (Homo sapiens, NCI-H226) was 7.81; in the assay with 786-O renal cancer cells (Homo sapiens, 786-0), 7.90.
`CC[C@H](C)[C@H](NC(=O)[C@H]1CCCCN1C)C(=O)N(C)[C@H](C[C@@H](OC(=O)Nc1ccccc1)c1nc(C(=O)N[C@@H](Cc2ccc(N)cc2)C[C@H](C)C(=O)O)cs1)C(C)C` [Compound 75b] had a negative-log EC50 (pEC50) with N87 gastric cancer cells of 9.41.
On to `CCOC(=O)C(C)C[C@H](Cc1ccccc1)NC(=O)c1csc([C@@H](C[C@H](C(C)C)N(CCc2ccc(N)cc2)C(=O)[C@@H](NC(=O)[C@H]2CCCCN2C)[C@@H](C)CC)OC(=O)NC)n1` (some centres unmarked) [(I-5)], for which the pEC50 in the assay with H226 lung cancer cells (Homo sapiens, NCI-H226) was 7.71; in the assay on 786-O renal cancer cells (Homo sapiens, 786-0), 7.64.
The like results for `CC[C@H](C)[C@H](NC(=O)[C@H]1CCCCN1C)C(=O)N(CCc1ccc(N)cc1)[C@H](C[C@@H](OC(=O)NC)c1nc(C(=O)N[C@@H](Cc2ccccc2)CC(C)C(=O)OC)cs1)C(C)C` (some centres unmarked) [(I-6)] were, in that order, 8.00 and 7.64.
Taken in the same sequence, the figures for `CC[C@H](C)[C@H](NC(=O)[C@H]1CCCCN1C)C(=O)N(C)[C@H](C[C@@H](OC(C)=O)c1nc(C(=O)N[C@@H](Cc2ccccc2)C[C@H](C)C(=O)O)cs1)C(C)C` [Compound A, reference compound] were 8.62 and 8.92.
Take `COc1cccc2c1C(=O)c1c(O)c3c(c(O)c1C2=O)C[C@@](O)(C(=O)CO)C[C@@H]3O[C@H]1C[C@H](N)[C@H](O)[C@H](C)O1` [doxorubicin, reference compound]: the pEC50 was 6.94 in the assay with H226 lung cancer cells (Homo sapiens, NCI-H226, H226 lung cancer cells, ATP luminescence assay, read-out: EC50) and 7.16 with 786-O renal cancer cells (Homo sapiens, 786-0, 786-O renal cancer cells, ATP luminescence assay, read-out: EC50).
